Test results: patent US20240207202A1, “COMBINATION THERAPIES TARGETING MITOCHONDRIAL BIOGENESIS FOR CANCER THERAPY” (The Wistar Institute of Anatomy and Biology, priority 2015, published 2024)

Tests used:
melanoma cells = assay: Cell clonogenicity (colony formation); assay type: cell-based, human; settings: long-term pretreatment, Gamitrinib 0.25 and 0.5 μM in combination with PLX4720
Description: Cell viability was measured by the MTT assay or CellTiter-Glo luminescent cell viability assay (Promega). For the assessment of cell clonogenicity, cells were seeded into 12-well tissue culture plates at a density of 500 cells/well as biological triplicates in drug-free medium. Medium was refreshed every 3 or 4 days for 14 days. Colonies were then stained overnight with methanol containing 0.05% crystal violet. After extensive washing with distilled H2O, cells were air-dried and subjected to image acquisition using a Nikon D200 DLSR camera.

[1] = test system: 1205Lu melanoma xenograft; assay: Tumor volume of 1205Lu melanoma xenografts; assay type: in vivo, mice; settings: 1205Lu xenografts; for % T/C (percentages of tumor volumes): Table 7, 17 days, alone or with PLX4720 200 mg/kg diet
WM9 melanoma cells = assay: Induction of apoptosis and cell death by PSVue 643 staining in WM9 melanoma cells; assay type: cell-based, human; settings: WM9, 72 h
Description: Adherent melanoma cells were harvested with 0.05% Trypsin-EDTA and were washed once with 1×DPBS. Cells were labeled with CellTrace™ Violet according to the manufacturer's protocol and were allowed to adhere to tissue culture plates overnight following the drug treatment. […] Cells were then immediately subjected to FACS analysis using a BD LSR II flow cytometer and at least 5,000 cells per sample were acquired.
Cell suspensions were kept in the dark at room temperature for 5 min. 0.2 ml 1×PBS supplemented with 10% FBS was added to each cell suspension and cells were immediately analyzed by BD LSRII.
Briefly, autophagic flux was assessed by FACS analysis of WM9 cells expressing the mCherry-eGFPLC3B construct that were transfected with the indicated siRNAs targeting autophagy and ER stress response and treated for 72 h with DMSO or the combination of PLX4720 at 10 μM and PD0325901 at 1 μM. The data represent the average of 2 biological replicates. […] Autophagic flux was assessed by FACS analysis of WM9 cells expressing the mCherry-eGFPLC3B construct treated for 72 h with Gamitrinib at 1 μM or Spautin-1 at 10 μM in combination with PLX4720 at 10 μM/PD0325901 at 1 μM. Cells treated with DMSO were used as the control for setting up the gate.

## Gamitrinib
Melanoma cells
  colony formation: substantially inhibited colony formation
[1]; Gamitrinib 15 mg/kg alone
  tumor growth: significantly impaired tumor growth
[1]; gamitrinib 5 mg/kg QD i.p.
  % T/C (percentages of tumor volumes): 124.59%
[1]; gamitrinib 15 mg/kg QD i.p.
  % T/C (percentages of tumor volumes): 57.3%
WM9 melanoma cells; Gamitrinib 1 or 2.5 μM vs 0 or 0.5 μM, with PLX4720 10 μM and PD0325901 1 μM
  induction of apoptosis and cell death: more remarkable induction of apoptosis and cell death
WM9 melanoma cells; titrated doses combined with MAPK pathway inhibitors (PLX4720 10 μM, PD0325901 1 μM)
  apoptosis and cell death, compared with other inhibitors of the drug screen: greater increase in apoptosis and cell death
